Reference: article PMC7006816, “Human β-Defensin 2 Mediated Immune Modulation as Treatment for Experimental Colitis” (Frontiers in Immunology, 2020)
Where no end group is shown, it is not given here.

How the values were obtained:
murine BM-DC's = assay: Cytokine production by murine BM-DC's; format: cell-based, mouse; conditions: n = 3
Method: BM-DC's were generated using granulocyte-macrophage colony-stimulating factor (GM-CSF) and RPMI-1640 medium (Merck) supplemented with 10% fetal calf serum (FBS; Life Technologies), 2 mM glutamine (Thermo Fisher), 100 U/ml penicillin/streptomycin (Gibco), 50 μM 2-mercaptoethanol (Roth), 1 mM sodium pyruvate (Biochrome), and 1x non-essential amino acids (Biochrome) as previously described ([28]). Shortly, 2 × 10^6 bone marrow cells flushed from the tibias and femurs of C57BL/6 mice were seeded in dishes containing 200 U/ml GM-CSF. After 3 days extra medium containing GM-CSF was added to the cells and on day 6 half of the medium was replaced by fresh […] containing GM-CSF. After 7 or 8 days slightly attached cells were harvested. Female C57BL/6JolaHsd mice were purchased from Janvier (St. Berthevin Cedex, France). Animal experiments were performed in strict accordance with the German regulations of the Society for Laboratory Animal Science (GV-SOLAS) and the European Health Law of the Federation of Laboratory Animal Science Associations (FELASA). The protocol was approved by the Regierungspräsidium Tübingen (Anzeige 09.01.2014).
2 × 10^5 murine BM-DC's or human Mo-DC's were seeded in 96-well round bottom plates. First they were pretreated with 100 ng/ml pertussis toxin (Sigma-Aldrich) or 5 μM of the CCR2 inhibitor RS 504393 (Tocris) and subsequently stimulated with 100 ng/ml LPS or 0.2 […] and 10 μg/ml or 100 μg/ml hBD2. 24 h later supernatants were collected and TNF-α [Biolegend (BM-DC's); R&D (Mo-DC's)] was analyzed according to the manufacturer's instructions. IL-10, IL-12, and IL-1β (LEGENDplex Biolegend) was as well-analyzed according to the manufacturer's instructions.

[1] = test system: SCID mice with CD4+/CD25− T cell transfer colitis; assay: T cell transfer colitis model; format: in vivo, mouse
Method: This study was performed by the Department of Biomedical Science at the University of Catania according to directive 86/609 EEC and approved by Novozymes science ethics committee. 8 weeks old female BALB/c and C.B-17 female SCID mice were purchased from Harlan (Italy). Colitis was induced in severe combined immunodeficiency (SCID) mice by transplantation of CD4^+/CD25^− T cells from the BALB/c mice. Briefly, lymphomonocytes isolated from spleen or lymph nodes from BALB/c mice were subjected to negative selection of CD4^+ T cells. Afterwards, CD4^+/CD25^+ cells were positively isolated by binding to the beads from the CD4^+ T cell suspensions and the CD4^+/CD25^− were collected from supernatant. […] CD4^+/CD25^− cells were intraperitoneally injected to SCID mice at a concentration of 500,000 cells in a final volume of 0.2 ml RPMI 1640. Sham treated animals (n = 6) received 0.2 ml pure RPMI 1640. Diseased mice were randomized divided into 4 groups (n = 11) and treated once daily by s.c. application of PBS (vehicle), hBD2 (0.1 and 1 mg/kg, respectively) or 0.3 mg/kg Dexamethasone (Dexa., applied intraperitoneally). Treatments started 7 days post T cell transfer and continued daily for 86 days. Animals were weighed three times a week and monitored twice a week starting from day 42 for the clinical status, summarized as DAI. The DAI included body weight loss, stool consistency, and the presence of blood at the rectum. One animal in the vehicle and one in the Dexamethasone treated groups had to be sacrificed before the end of the study. At the end of the study, animals were sacrificed and the colon was removed and carefully cleaned for further analysis. First, the colon was weighed then a section from the middle was removed and fixed for pathologic survey. The rest of the colon (5 cm) was used to quantify the activity of myeloperoxidase in the tissue.
Myeloperoxidase activity was performed on 5 cm of colon previously frozen at −80°C. Colon was homogenized in 0.5% of HETAB dissolved in 10 mM of Phosphate-Citrate Buffer (pH 7.0) to enable the release of MPO enzyme from the neutrophil granules. Homogenated samples after three freeze-thaw cycles were spun at 3,000 × g at 4°C for 30 min. Pellets were resuspended in 0.5% HETAB in 10 mM Phosphate-Citrate Buffer and spun again at 3,000 × g at 4°C for 30 min. 500 ul of supernatant were delivered into a vial along with 500 ul of TMB in Phosphate-Citrate Buffer containing Perborate Sodium. Changes in absorbance at 620 and 450 nm were read by a spectrophotometer (IRIS). Peroxidase enzyme diluted in 0.5% HETAB in 10 mM Phosphate-Citrate Buffer and H2O was used as standard. Two-fold dilutions of standard were prepared at the highest concentration of 50 pg/ml. Reagents and samples were kept refrigerated. Substrate solution was prepared just before the assay. MPO activity expresses the amount of enzyme that is able to degrade […] of peroxide/min and it is expressed as U/g tissue weight.
Sections of the colon were taken from each animal and preserved in neutral buffered formaline for subsequent histological analysis. Sections were stained using haematoxylin and eosin for further scoring.

[2] = LPS, hBD2 100 μg/ml, 24 h, LEGENDplex
[3] = hBD2 1 mg/kg s.c. daily, n = 11

human β-defensin 2 (GIGDPVTCLKSGAICHPVFCPRRYKQIGTCGLPGTKCCKKP; not fully specified; ends and bridges not checked) [hBD2, Recombinant human β-defensin 2 expressed in E. coli as his-tagged thioredoxin fusion, cleaved and purified, natural tertiary structure]
TNF-α production in LPS-challenged murine BM-DCs (murine BM-DC's; LPS, hBD2 100 μg/ml or 10 μg/ml, 24 h, ELISA): dose-dependently curbed TNF-α production | IL-10 secretion (murine BM-DC's; [2]): substantial induction | LPS-induced IL-1β secretion (murine BM-DC's; [2]): alleviated | LPS-induced IL-12p70 secretion (murine BM-DC's; [2]): alleviated | LPS-induced TNF-α secretion (murine BM-DC's; [2]): alleviated | Cytokine production after TLR-independent activation (murine BM-DC's; cytokine cocktail TNF-α, IL-6, IL-1β (0.2 mg/ml each), hBD2 100 μg/ml): failed to modulate TLR-independent activation of BM-DCs | Outcome of T cell mediated colitis ([1]; hBD2 0.1 mg/kg s.c. daily, n = 11): did not improve the outcome of T cell mediated colitis | Histological analysis of colon ([1]; hBD2 1 mg/kg s.c. daily): less signs of inflammation and tissue disruption | Weight change ([1]; hBD2 1 mg/kg s.c. daily from day 7 after transfer, n = 11): less weight loss | Colon weight ([1]; hBD2 1 mg/kg s.c. daily, end of experiment, n = 11): significantly reduced the colon weight | DAI [1, 3]: improved DAI | Stool score [1, 3]: Same trait was observed for the stool score | Colonic myeloperoxidase activity ([1]; hBD2 s.c. daily (0.1 or 1 mg/kg), end of experiment): Only a minor effect
